Experiment in all cases: DTP human tumour cell line panel, 48 h
Experiment [1] concerns COLO 205.
Experiment [2] relates to EKVX.
In experiment [3] the test system is HCT-15.
In experiment [4] the test system is HOP-62.
In experiment [5] the test system is KM12.
In experiment [6] the test system is M14.
For experiment [7], the system named is OVCAR-5.
In experiment [8] the test system is RPMI-8226.
In experiment [9] the test system is SF-539.
For experiment [10], the system named is SK-MEL-28.
For experiment [11], the system named is SK-MEL-5.
Experiment [12] concerns SK-OV-3.
Experiment [13] deals with SNB-19.
The test system of experiment [14] is SNB-75.
Experiment [15] relates to SW-620.
Experiment [16] deals with UACC-257.
In experiment [17] the test system is UACC-62.
For experiment [18], the system named is NCI-H460.
Experiment [19] relates to SF-268.
The test system of experiment [20] is HOP-92.

Structures are written as SMILES.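 Step 1: Grow cells in 96-well plates. Step 2: Expose to compound for 48 hours at 5 concentrations. Step 3: Interpolate endpoints linearly; if unreached, use highest concentration. At the GI50, growth is halved.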 Active and inactive are the calls of the source. Cut-off read from the data, not from the text of the source: active = GI50 up to about 1.1 µM and inactive = higher.

Broadly, the GI50 is the concentration giving 50% growth inhibition.

For the compound `C[N+]1([O-])[C@H]2CC(OC(=O)[C@H](CO)c3ccccc3)C[C@H]1[C@H]1O[C@H]12` (stereo not given in full), the GI50 in experiment [1] was > 100 µM (inactive); in [2], > 100 µM (inactive); in experiment [3] it was more than 100 µM; in [4], > 100 µM (inactive); in experiment [5], > 100 µM (inactive); in [6] it was > 100 µM (inactive). Besides, the GI50 in [7], in [8], in [9], in experiment [10], in experiment [11] and in [12] was > 100 µM (inactive) in each case. Besides, the GI50 in experiment [13], in experiment [14], in experiment [15], in experiment [16] and in experiment [17] was > 100 µM (inactive) each time.

Take `CC(=O)Nc1ccc(Sc2nnc(NC(C)=O)s2)cc1`: the GI50 is > 100 µM (inactive) in [1]; > 100 µM (inactive) in [2]; more than 100 µM in [3]; > 100 µM (inactive) in [4]; > 100 µM (inactive) in experiment [5]; > 100 µM (inactive) in experiment [6]. Moreover, the GI50 in experiment [18], in experiment [7], in [8], in [19], in experiment [9] and in [10] was > 100 µM (inactive) throughout. The GI50 in experiment [11], in experiment [12], in [13], in experiment [14], in experiment [15] and in experiment [16] was > 100 µM (inactive) throughout.

Take `N#CCCN(CCC#N)c1ccc(/C=C(/NC(=O)Nc2ccccc2Cl)NC(=O)c2cc([N+](=O)[O-])ccc2Cl)cc1`: the GI50 in [1] was > 100 µM (inactive); in [2] it was > 100 µM (inactive); in experiment [3], more than 100 µM; in experiment [4], > 100 µM (inactive); in [20], > 100 µM (inactive); in [5], > 100 µM (inactive). For the same compound, the GI50 in [6] is > 100 µM (inactive); in experiment [7], > 100 µM (inactive); in experiment [8], 52.4 µM (inactive); in [19] it was > 100 µM (inactive); in experiment [9] it was > 100 µM (inactive); in [10], > 100 µM (inactive). In addition, the GI50 in [11] was > 100 µM (inactive); in experiment [12], > 100 µM (inactive); in experiment [13], > 100 µM (inactive); in [15], > 100 µM (inactive); in experiment [17] it was 57.8 µM (inactive).

`c1ccc2c(CCNC3=NCCO3)cccc2c1`: the GI50 is > 10 µM (inactive) in experiment [1]; > 10 µM (inactive) in experiment [2]; more than 10 µM in experiment [3]; > 10 µM (inactive) in experiment [4]; > 10 µM (inactive) in [5]; > 10 µM (inactive) in experiment [6]. The GI50 in [18], in [7], in experiment [8], in [19], in experiment [9] and in experiment [10] was > 10 µM (inactive) each time. In addition, the GI50 in experiment [11], in experiment [12], in experiment [13], in experiment [14], in [15] and in experiment [17] was > 10 µM (inactive) throughout.

Source of the values: ChEMBL document CHEMBL1201862, “PubChem BioAssay data set” (2004).
